Experimental data published in patent US20080027001A1, “NOGO RECEPTOR FUNCTIONAL MOTIFS, PEPTIDE MIMETICS, AND MUTATED FUNCTIONAL MOTIFS RELATED THERETO, AND METHODS OF USING THE SAME” (priority 2006, published 2008).
“And” between values parts separate entries of the source, which are not always exact repeats. Identical values can stand only once. “Also recorded” adds a separate entry of the source. Bridges are numbered along the chain shown (N, C = ends).

Assays:
cerebellar neurons [1] = assay: Neurite outgrowth assay, inhibition by soluble MAG-Fc; format: cell-based, rat; conditions: for effect on MAG-Fc-suppressed neurite outgrowth / antagonism of MAG-mediated inhibition of axonal growth: peptide 100 μg/ml; for effect on MAG-Fc-suppressed neurite outgrowth: MAG-Fc 25 μg/ml (FIG. 5A); for efficacy of peptide relative to NRL2b over a range of concentrations / antagonism of inhibitory activity of MAG-Fc: MAG-Fc 20 μg/ml; for efficacy of peptide relative to NRL2b over a range of concentrations: FIG. 6C, 6D, position 2 effect at 25-50 μg/ml; for antagonism of MAG-mediated inhibition of axonal growth: MAG-Fc 20 μg/ml (FIG. 6B); for peptide concentration with maximal effects on neurite outgrowth / peptide concentration with significant effects on neurite outgrowth: MAG-Fc 20 μg/ml (FIG. 6A); for antagonism of inhibitory activity of MAG-Fc: peptide 50 μg/ml (60 μM)
Experimental: (§1) Cerebellar neurons isolated from postnatal day ⅔ rat pups were cultured over monolayers of 3T3 cells (Doherty et al. (1991) Neuron 6(2):247-58) essentially as previously described (Williams et al. (1994) Neuron 13(3):583-94). Monolayers were established by seeding ˜80,000 cells into individual chambers of an eight-chamber tissue culture slide coated with poly-L-lysine and fibronectin. The cell lines, and monolayers, were maintained in Dulbecco's modified Eagle's medium supplemented with 10% fetal calf serum (FCS). Cocultures were established by removing the media from the monolayers and seeding ˜6000 dissociated cerebellar neurons into each well in SATO medium (modified from Doherty et al. (1990) Neuron 5(2):209-19; Dulbecco's modified Eagle's medium supplemented with 2% FBS, 33% bovine albumin, 0.62 μg/ml progesterone, 161 μg/ml putrescine, 4 μg/ml L-thyroxine, 0.387 μg/ml selenium, and 3.37 μg/ml tri-iodo-thyronine (components from Sigma-Aldrich, St. Louis, Mo.)). Monolayers were established for 24 hours prior to addition of the neurons and the cultures were maintained for ˜23-27 hr. Following careful fixation with 4% paraformaldehyde, the neurons were stained with a GAP-43 antibody, and the mean length of the longest neurite per cell was measured for ˜120-150 neurons, again as previously described (Williams et al. (1994) supra). For neurite outgrowth on substrate-bound MAG, 96-well plates were coated with a thin layer of nitrocellulose (Bio-Rad, Hercules, Calif.) before incubating with 1 μg/ml of MAG(d1-5) (a chimeric construct containing domains 1-5 of the extracellular portion of MAG) at 4° C. overnight. Wells were subsequently coated with 17 μg/ml of poly-D-lysine (Sigma, St. Louis, Mo.), followed by incubation in Dulbecco's modified Eagle's medium containing 10% FCS. Cerebellar granule neurons were dissociated and seeded at a density of 10^4 cells per well. Cells were cultured for 18-20 h before being fixed with 4% paraformaldehyde and stained with a neuronal-specific anti-III-tubulin antibody, Tuj 1 (Covance, Emeryville, Calif.). The average of total neurite lengths from each neuron was measured automatically by the MetaXpress Neurite Outgrowth module (Molecular Devices, Sunnyvale, Calif.) from at least 200 neurons per well, in triplicate wells per experiment. Results were repeated independently more than three times.
(§2) Synthetic peptides were all obtained from a commercial supplier (Multiple Peptide Systems, San Diego, Calif.). All peptides were purified to the highest grade by reverse-phase HPLC and obtained at the highest level of purity (>97%). With all peptides, there was no indication of higher molecular weight species. Where peptide sequences are underlined, this denotes a peptide that has been cyclized via a disulfide bond between the given cysteine residues. All peptides were acetylated (e.g., denoted with “N-Ac-”) and amide blocked (e.g., denoted with “—NH2”). Recombinant MAG-Fc chimera was obtained from R&D Systems (Minneapolis, Minn.) and used at final concentrations ranging from 5-25 μg/ml. The monoclonal antibody to GT1b (clone GMR5) was obtained from Seikagaku America (Falmouth, Mass.) and was used at a final concentration of 20 μg/ml. All reagents were diluted into the coculture media and, in general, added to the cultures just prior to the plating of the neurons. GT1b and GM1 were obtained as gifts from Dr. Gino Toffano (Libero, Italy) and University of Milan, and asialo-GM1 was obtained from Sigma (St. Louis, Mo.). The recombinant NgR1(310)-fc and MAG(d1-5) chimeras were expressed and purified in-house. Pharmacological reagents were obtained from Calbiochem (La Jolla, Calif.) and/or Sigma. For reagents used in cell-surface NgR binding assays, please see Examples 1.5 and 1.7. For reagents used in the cell surface p75NTR-NgR-AP binding assay, please see Example 1.13.
(§3) In contrast, a soluble MAG-Fc chimera inhibits neurite outgrowth in a manner that depends upon both ganglioside and NgR function. […]

cerebellar neurons [2] = assay: Neurite outgrowth assay, control media (basal outgrowth); format: cell-based, rat; conditions: for effect on basal neurite outgrowth: peptide 100 μg/ml, without MAG-Fc
Experimental: as §1, §2, §3

NgR1(310)-fc = molecular target: T1, NgR1(310)-fc (Homo sapiens, UniProt Q9BZR6); assay: Analytical ultracentrifugation (sedimentation velocity), wild type receptor; format: binding; conditions: ganglioside 0 to 48 μM (FIG. 3A-C)
T1 construct: made in house; host or cells: mammalian expression vector (pSMED2)
T1 sequence (Q9BZR6 with tags, fused parts or gaps limits assumed): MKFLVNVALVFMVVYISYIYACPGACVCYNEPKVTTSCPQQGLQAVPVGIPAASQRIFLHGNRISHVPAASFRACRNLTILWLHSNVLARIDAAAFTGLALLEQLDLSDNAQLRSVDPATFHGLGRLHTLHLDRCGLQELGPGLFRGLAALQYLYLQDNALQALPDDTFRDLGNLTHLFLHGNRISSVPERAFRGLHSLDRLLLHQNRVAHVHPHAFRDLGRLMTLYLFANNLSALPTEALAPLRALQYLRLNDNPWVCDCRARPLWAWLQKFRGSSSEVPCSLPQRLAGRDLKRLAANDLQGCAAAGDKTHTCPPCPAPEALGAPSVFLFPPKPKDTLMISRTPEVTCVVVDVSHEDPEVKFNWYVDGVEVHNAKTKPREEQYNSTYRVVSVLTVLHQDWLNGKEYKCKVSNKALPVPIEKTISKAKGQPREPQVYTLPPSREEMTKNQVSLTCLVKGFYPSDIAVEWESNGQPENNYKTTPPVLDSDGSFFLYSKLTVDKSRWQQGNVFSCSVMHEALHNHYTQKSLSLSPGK
Description: Human Nogo Receptor 1 (NgR1)(310)-fc point mutants (FRG-1 (R151E); FRG-2 (R279E); FRG-3 (R199E), and FRG-4 (R151E/R279E/R199E)) were constructed by Genewiz (North Brunswick, N.J.) using their site-directed mutagenesis technology. The template used to construct all the described mutants was wild type human NgR1(310)-fc (SEQ ID NO:59), which was generated by fusing a nucleotide sequence corresponding to the first 310 amino acid of Human Nogo Receptor 1 to a human Fc fragment in a mammalian expression vector (the sequence of wild type NgR1(310)-fc and the expression vector is set forth in SEQ ID NO:60 and a schematic of the expression vector is shown in FIG. 11). […]
Sedimentation velocity experiments were performed on a Beckman XLI/XLA analytical ultracentrifuge. […] Scans were recorded at 20° C. with a rotor speed of 35,000 rpm, and the signal was detected at 230 nm with a spacing of 0.006 in the continuous mode. Sedimentation profiles were analyzed by the program Sedfit (Schuck (2000) Biophys. J. 78:1606-19) to obtain the sedimentation coefficient distributions. The solvent density (1.006) and partial specific volume (0.72) were calculated using the program Sednterp (Laue et al. (1992) Analytical Ultracentrifugation in Biochemistry and Polymer Science (Harding, S. E., Towe, A. J. and Horton, J. C., eds.) pp. 90-125, Royal Society of Chemistry, Cambridge, U.K). […]

cerebellar neurons [3] = assay: Neurite outgrowth assay, inhibition by GT1b antibody; format: cell-based, rat; conditions: peptide 100 μg/ml; antibody tested at up to 40 μg/ml
Experimental: Cerebellar neurons isolated from postnatal day ⅔ rat pups were cultured over monolayers of 3T3 cells (Doherty et al. (1991) Neuron 6(2):247-58) essentially as previously described (Williams et al. (1994) Neuron 13(3):583-94). Monolayers were established by seeding ˜80,000 cells into individual chambers of an eight-chamber tissue culture slide coated with poly-L-lysine and fibronectin. The cell lines, and monolayers, were maintained in Dulbecco's modified Eagle's medium supplemented with 10% fetal calf serum (FCS). […] Following careful fixation with 4% paraformaldehyde, the neurons were stained with a GAP-43 antibody, and the mean length of the longest neurite per cell was measured for ˜120-150 neurons, again as previously described (Williams et al. (1994) supra). […] The average of total neurite lengths from each neuron was measured automatically by the MetaXpress Neurite Outgrowth module (Molecular Devices, Sunnyvale, Calif.) from at least 200 neurons per well, in triplicate wells per experiment. […]

[4] = without MAG-Fc (data not shown)

N-Ac-CAGRDLKRC-NH2 (disulfide 1-9 (inferred)) [NRL4]
effect on MAG-Fc-suppressed neurite outgrowth (cerebellar neurons [1]): no effect
effect on basal neurite outgrowth (cerebellar neurons [2]): no effect

N-Ac-CQAFRGC-NH2 (disulfide 1-7 (inferred))
efficacy of peptide relative to NRL2b over a range of concentrations (cerebellar neurons [1]): no obvious effect on the efficacy of the peptide
antagonism of MAG-mediated inhibition of axonal growth (cerebellar neurons [1]): as effective as NRL2b

N-Ac-CYNEPKVTC-NH2 (disulfide 1-9 (inferred)) [NRL1]
effect on MAG-Fc-suppressed neurite outgrowth (cerebellar neurons [1]): no effect
effect on basal neurite outgrowth (cerebellar neurons [2]): no effect

asialo-GM1
interaction with NgR1(310)-fc (shift of sedimentation coefficient) (NgR1(310)-fc): did not interact; also recorded: No change in sedimentation coefficient

N-Ac-CQKFAGC-NH2 (disulfide 1-7 (inferred))
antagonism of MAG-mediated inhibition of axonal growth (cerebellar neurons [1]): ineffective

N-Ac-CQKARGC-NH2 (disulfide 1-7 (inferred))
efficacy of peptide relative to NRL2b over a range of concentrations (cerebellar neurons [1]): reduced efficacy by about two-fold
antagonism of MAG-mediated inhibition of axonal growth (cerebellar neurons [1]): as effective as NRL2b

N-Ac-CQKFRGC-NH2 (disulfide 1-7 (inferred)) [NRL2b]
peptide concentration with maximal effects on neurite outgrowth (cerebellar neurons [1]): 50 μg/ml and 60 μM
peptide concentration with significant effects on neurite outgrowth (cerebellar neurons [1]): 25 μg/ml and 30 μM
antagonism of inhibitory activity of MAG-Fc (cerebellar neurons [1]): effectively antagonized
effect on neurite outgrowth in control media (cerebellar neurons [2]; [4]): no effect

QKFRG (listed as Homo sapiens)
antagonism of MAG-mediated inhibition of axonal growth (cerebellar neurons [1]): did not antagonize

N-Ac-CSLPQRLAC-NH2 (disulfide 1-9 (inferred)) [NRL3]
effect on MAG-Fc-suppressed neurite outgrowth (cerebellar neurons [1]): no effect
effect on basal neurite outgrowth (cerebellar neurons [2]): no effect

N-Ac-CLQKFRGSSC-NH2 (disulfide 1-10 (inferred)) [NRL2]
peptide concentration at which response reaches plateau (cerebellar neurons [1]; MAG-Fc 25 μg/ml (FIG. 5B)): ~45 µM
peptide concentration with near maximal inhibitory activity (cerebellar neurons [1]; MAG-Fc present): ~45 µM
effect on MAG-Fc-suppressed neurite outgrowth (cerebellar neurons [1]): failed to substantially inhibit neurite outgrowth
effect on basal neurite outgrowth (cerebellar neurons [2]): no effect
effect on neurite outgrowth in control media (cerebellar neurons [2]; tested at up to 200 μg/ml): no significant effect
antagonism of GT1b antibody inhibition of neurite outgrowth (cerebellar neurons [3]): fully inhibited the response; also recorded: failed to inhibit neurite outgrowth

N-Ac-CKFRGSC-NH2 (disulfide 1-7 (inferred)) [NRL2a]
peptide concentration with maximal effects on neurite outgrowth (cerebellar neurons [1]): 50 μg/ml and 60 μM
peptide concentration with significant effects on neurite outgrowth (cerebellar neurons [1]): 25 μg/ml and 30 μM
antagonism of inhibitory activity of MAG-Fc (cerebellar neurons [1]): effectively antagonized
effect on neurite outgrowth in control media (cerebellar neurons [2]; [4]): no effect

N-Ac-CQKFRAC-NH2 (disulfide 1-7 (inferred))
antagonism of MAG-mediated inhibition of axonal growth (cerebellar neurons [1]): ineffective
